Measured values as given in patent US12281057B2 (VERTEX PHARMACEUTICALS INCORPORATED, priority 2017, dated 2025).

These compounds were tested against truncated form of human NaV 1.8 with full channel activity (Homo sapiens, UniProt Q9Y5Y9) (assay: E-VIPR Assay Method A for detecting and measuring Nav inhibition (HEK cells, membrane potential FRET dyes, electrical stimulation)). Details: HEK cells expressing human NaV 1.8, HS (human serum) in compound loading buffer, 11 point dose response, top dose 3 μM, Table 20A, read-out: Nav 1.8 MedChem Optical Assay EVIPR Assay Method A HS IC50.
Sequence of truncated form of human NaV 1.8 with full channel activity (Q9Y5Y9 126-1722 limits assumed): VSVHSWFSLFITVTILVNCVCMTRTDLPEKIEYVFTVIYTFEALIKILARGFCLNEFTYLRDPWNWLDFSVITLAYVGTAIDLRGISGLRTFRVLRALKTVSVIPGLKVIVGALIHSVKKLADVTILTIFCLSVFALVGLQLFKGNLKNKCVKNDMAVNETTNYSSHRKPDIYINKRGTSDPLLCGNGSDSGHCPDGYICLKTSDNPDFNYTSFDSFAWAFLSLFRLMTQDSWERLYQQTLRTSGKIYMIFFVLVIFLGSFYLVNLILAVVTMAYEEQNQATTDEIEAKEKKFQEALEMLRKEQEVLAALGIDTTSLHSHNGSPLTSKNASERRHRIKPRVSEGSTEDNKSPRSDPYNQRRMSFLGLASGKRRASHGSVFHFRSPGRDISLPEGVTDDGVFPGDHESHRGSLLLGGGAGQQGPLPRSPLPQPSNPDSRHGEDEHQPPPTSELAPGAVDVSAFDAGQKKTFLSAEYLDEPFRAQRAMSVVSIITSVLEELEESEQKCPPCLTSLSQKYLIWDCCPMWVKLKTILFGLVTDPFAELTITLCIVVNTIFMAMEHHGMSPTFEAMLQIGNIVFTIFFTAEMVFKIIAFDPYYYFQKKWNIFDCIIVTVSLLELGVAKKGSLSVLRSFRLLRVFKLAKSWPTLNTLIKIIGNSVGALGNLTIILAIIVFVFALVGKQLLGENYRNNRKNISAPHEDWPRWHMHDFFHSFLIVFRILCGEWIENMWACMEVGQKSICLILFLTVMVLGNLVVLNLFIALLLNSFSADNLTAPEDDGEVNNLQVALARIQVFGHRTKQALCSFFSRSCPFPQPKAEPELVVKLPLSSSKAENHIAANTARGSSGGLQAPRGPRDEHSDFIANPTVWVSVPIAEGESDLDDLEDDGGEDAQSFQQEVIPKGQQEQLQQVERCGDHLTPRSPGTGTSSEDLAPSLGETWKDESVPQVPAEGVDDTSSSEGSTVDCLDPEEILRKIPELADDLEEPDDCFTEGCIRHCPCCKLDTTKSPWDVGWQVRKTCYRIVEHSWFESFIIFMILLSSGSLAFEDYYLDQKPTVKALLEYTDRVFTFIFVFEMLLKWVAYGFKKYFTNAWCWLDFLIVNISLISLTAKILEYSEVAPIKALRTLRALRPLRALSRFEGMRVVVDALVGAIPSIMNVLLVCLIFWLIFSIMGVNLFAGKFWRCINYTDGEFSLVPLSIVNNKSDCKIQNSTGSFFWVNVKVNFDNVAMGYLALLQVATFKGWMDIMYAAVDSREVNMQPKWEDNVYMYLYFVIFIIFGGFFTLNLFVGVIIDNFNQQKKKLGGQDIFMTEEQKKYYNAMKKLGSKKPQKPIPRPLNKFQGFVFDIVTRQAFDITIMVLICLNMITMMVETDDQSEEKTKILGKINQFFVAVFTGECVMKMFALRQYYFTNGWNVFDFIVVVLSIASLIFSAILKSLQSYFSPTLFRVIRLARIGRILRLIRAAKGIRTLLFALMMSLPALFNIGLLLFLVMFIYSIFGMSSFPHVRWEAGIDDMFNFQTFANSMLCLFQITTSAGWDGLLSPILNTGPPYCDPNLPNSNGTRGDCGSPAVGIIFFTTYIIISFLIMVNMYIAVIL
Type: cell-based
Procedure, shortened: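 HEK cells expressing truncated human NaV1.8, loaded with CC2-DMPE/DiSBAC6(3) FRET dyes, incubated 30 min at room temp with compound (0.625% DMSO), then electrically stimulated (1.25 A biphasic, 10 Hz, 10 s). Inhibition from 460/580 nm ratio Rf/Ri, normalised to positive and DMSO controls.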
In the case of `NC(=O)c1cc(NC(=O)c2c(Oc3ccc(OC(F)(F)F)nc3)ccc(C(F)(F)F)c2F)ccc1F` [Compound 69, N-(3-carbamoyl-4-fluoro-phenyl)-2-fluoro-6-[[6-(trifluoromethoxy)-3-pyridyl]oxy]-3-(trifluoromethyl)benzamide], the IC50 is reported as 56 nM.
With `NC(=O)c1cc(NC(=O)c2c(Oc3ccc(OC(F)(F)F)cc3)ccc(Cl)c2F)ccn1` [Compound 70, 4-[[3-Chloro-2-fluoro-6-[4-(trifluoromethoxy)phenoxy]benzoyl]amino]pyridine-2-carboxamide] the IC50 was 53 nM.
In the case of `NC(=O)c1cc(NC(=O)c2c(Oc3ccc(OC(F)(F)F)cc3)ccc(C3CC3)c2F)ccc1F` [Compound 71, N-(3-Carbamoyl-4-fluoro-phenyl)-3-cyclopropyl-2-fluoro-6-[4-(trifluoromethoxy)phenoxy]benzamide], the IC50 is reported as 40 nM.
With `NC(=O)c1cc(NC(=O)c2c(Oc3ccc(OC(F)(F)F)cc3)ccc(C3CC3)c2F)ccn1` [Compound 72, 4-[[3-Cyclopropyl-2-fluoro-6-[4-(trifluoromethoxy)phenoxy]benzoyl]amino]pyridine-2-carboxamide] the IC50 was 175 nM.
Compound `NC(=O)c1cc(NC(=O)c2c(Oc3ccc(OC(F)(F)F)cc3)ccc(Cl)c2F)ccc1F` [Compound 73, N-(3-Carbamoyl-4-fluoro-phenyl)-3-chloro-2-fluoro-6-[4-(trifluoromethoxy)phenoxy]benzamide] has an IC50 of 23 nM.
`NC(=O)c1cc(NC(=O)c2c(Oc3ccc(OC(F)(F)F)cc3)ccc(C(F)F)c2F)ccc1F` [Compound 74, N-(3-Carbamoyl-4-fluoro-phenyl)-3-(difluoromethyl)-2-fluoro-6-[4-(trifluoromethoxy)phenoxy]benzamide] gave an IC50 of 22 nM.
Work on `COc1cc(OC(F)(F)F)ccc1Oc1cc(C(F)(F)F)c(F)cc1C(=O)Nc1ccnc(C(N)=O)c1` [Compound 75, 4-[[5-Fluoro-2-[2-methoxy-4-(trifluoromethoxy)phenoxy]-4-(trifluoromethyl)benzoyl]amino]pyridine-2-carboxamide] yielded an IC50 of 26 nM.
`NC(=O)c1cc(NC(=O)c2cc(F)c(C(F)(F)F)cc2Oc2ccc(OC(F)(F)F)cc2)ccn1` [Compound 76, 4-[[5-Fluoro-2-[4-(trifluoromethoxy)phenoxy]-4-(trifluoromethyl)benzoyl]amino]pyridine-2-carboxamide] showed an IC50 of 350 nM.
In the case of `NC(=O)c1cc(NC(=O)c2cc(F)c(C(F)(F)F)cc2Oc2ccc(OC(F)(F)F)cc2)ccc1F` [Compound 77, N-(3-Carbamoyl-4-fluoro-phenyl)-5-fluoro-2-[4-(trifluoromethoxy)phenoxy]-4-(trifluoromethyl)benzamide], the IC50 is reported as 150 nM.
Compound `COc1cc(OC(F)(F)F)ccc1Oc1cc(C2CC2)ncc1C(=O)Nc1ccnc(C(N)=O)c1` [Compound 78] has an IC50 of 97 nM.
`NC(=O)c1cc(NC(=O)c2cc(C(F)(F)C(F)(F)F)ccc2Oc2ccc(OC(F)(F)F)cc2)ccc1F` [Compound 79, N-(3-Carbamoyl-4-fluoro-phenyl)-5-(1,1,2,2,2-pentafluoroethyl)-2-[4-(trifluoromethoxy)phenoxy]benzamide] was tested, and the IC50 was 69 nM.
Compound `NC(=O)c1cc(NC(=O)c2cc(C(F)(F)C(F)(F)F)ccc2Oc2ccc(OC(F)(F)F)cc2)ccn1` [Compound 80, 4-[[5-(1,1,2,2,2-pentafluoroethyl)-2-[4-(trifluoromethoxy)phenoxy]benzoyl]amino]pyridine-2-carboxamide] has an IC50 of 127 nM.
Compound `COc1cc(OC(F)(F)F)ccc1Oc1ccc(C(F)(F)C(F)(F)F)cc1C(=O)Nc1ccnc(C(N)=O)c1` [Compound 81] has an IC50 of 38 nM.
Compound `COc1cc(OC(F)(F)F)ccc1Oc1ccc(C(F)(F)F)c(F)c1C(=O)Nc1ccc(C(N)=O)cc1F` [Compound 82, N-(4-carbamoyl-2-fluoro-phenyl)-2-fluoro-6-[2-methoxy-4-(trifluoromethoxy)phenoxy]-3-(trifluoromethyl)benzamide] has an IC50 of 92 nM.
`NC(=O)c1cc(NC(=O)c2c(Oc3ccc(OC(F)(F)F)cc3)ccc(C(F)F)c2F)ccn1` [Compound 83, 4-[[3-(Difluoromethyl)-2-fluoro-6-[4-(trifluoromethoxy)phenoxy]benzoyl]amino]pyridine-2-carboxamide] showed an IC50 of 48 nM.
`COc1cc(OC(F)(F)F)ccc1Oc1cc(C(F)(F)F)ncc1C(=O)Nc1cc(C)nc(C(N)=O)c1` [Compound 84, 4-[[4-[2-Methoxy-4-(trifluoromethoxy)phenoxy]-6-(trifluoromethyl)pyridine-3-carbonyl]amino]-6-methyl-pyridine-2-carboxamide] gave an IC50 of 580 nM.
`NC(=O)c1cc(NC(=O)c2c(Oc3ccc(OC(F)(F)F)cc3)ccc(C(F)(F)F)c2F)ccc1O` [Compound 85, N-(3-carbamoyl-4-hydroxy-phenyl)-2-fluoro-6-[4-(trifluoromethoxy)phenoxy]-3-(trifluoromethyl)benzamide] was tested, and the IC50 was 320 nM.
In the case of `COc1cc(OC(F)(F)F)ccc1Oc1ccc(C(F)(F)F)c(F)c1C(=O)Nc1cc(C)nc(C(N)=O)c1` [Compound 86, 4-[[2-fluoro-6-[2-methoxy-4-(trifluoromethoxy)phenoxy]-3-(trifluoromethyl)benzoyl]amino]-6-methyl-pyridine-2-carboxamide], the IC50 is reported as 32 nM.
Compound `COc1cc(OC(F)(F)F)ccc1Oc1ccc(C(F)(F)F)c(F)c1C(=O)Nc1cc(C(N)=O)ccn1` [Compound 87, 2-[[2-fluoro-6-[2-methoxy-4-(trifluoromethoxy)phenoxy]-3-(trifluoromethyl)benzoyl]amino]pyridine-4-carboxamide] has an IC50 of 150 nM.
`[2H]C([2H])([2H])Oc1cc(OC(F)(F)F)ccc1Oc1cc(C2CC2)ncc1C(=O)Nc1ccc(F)c(C(N)=O)c1` [Compound 88, N-(3-Carbamoyl-4-fluoro-phenyl)-6-cyclopropyl-4-[2-(trideuteriomethoxy)-4-(trifluoromethoxy)phenoxy]pyridine-3-carboxamide] showed an IC50 of 49 nM.
`NC(=O)c1cccc(NC(=O)c2c(Oc3ccc(OC(F)(F)F)cc3F)ccc(C(F)(F)F)c2F)c1` [Compound 89, N-(3-carbamoylphenyl)-2-fluoro-6-[2-fluoro-4-(trifluoromethoxy)phenoxy]-3-(trifluoromethyl)benzamide] showed an IC50 of 44 nM.
For `NC(=O)c1cc(NC(=O)c2c(Oc3ccc(OC(F)(F)F)cc3F)ccc(C(F)(F)F)c2F)ccn1` [Compound 90, 4-[[2-fluoro-6-[2-fluoro-4-(trifluoromethoxy)phenoxy]-3-(trifluoromethyl)benzoyl]amino]pyridine-2-carboxamide], the IC50 was 38 nM.
Compound `COc1c(C(F)(F)F)ccc(Oc2ccc(OC(F)(F)F)cc2)c1C(=O)Nc1ccnc(C(N)=O)c1` [Compound 91, 4-[[2-Methoxy-6-[4-(trifluoromethoxy)phenoxy]-3-(trifluoromethyl)benzoyl]amino]pyridine-2-carboxamide] has an IC50 of 40 nM.
Compound `COc1cc(OC(F)(F)F)ccc1Oc1ccc(C(F)(F)F)c(OC)c1C(=O)Nc1ccc(F)c(C(N)=O)c1` [Compound 92, N-(3-Carbamoyl-4-fluoro-phenyl)-2-methoxy-6-[2-methoxy-4-(trifluoromethoxy)phenoxy]-3-(trifluoromethyl)benzamide] has an IC50 of 2 nM.
With `COc1cc(OC(F)(F)F)ccc1Oc1cc(C(C)(C)C)ncc1C(=O)Nc1ccnc(C(N)=O)c1` [Compound 93, 6-tert-Butyl-N-(2-carbamoyl-4-pyridyl)-4-[2-methoxy-4-(trifluoromethoxy)phenoxy]pyridine-3-carboxamide] the IC50 was 63 nM.
For `COc1cc(OC(F)(F)F)ccc1Oc1cc(C(C)(C)C)ncc1C(=O)Nc1ccc(F)c(C(N)=O)c1` [Compound 94, 6-tert-Butyl-N-(3-carbamoyl-4-fluoro-phenyl)-4-[2-methoxy-4-(trifluoromethoxy)phenoxy]pyridine-3-carboxamide], the IC50 was 18 nM.
`COc1cc(OC(F)(F)F)ccc1Oc1ccc(C(F)(F)F)c(F)c1C(=O)Nc1ccc(F)c(C(=O)N(C)C)c1` [Compound 95, N-[3-(dimethylcarbamoyl)-4-fluoro-phenyl]-2-fluoro-6-[2-methoxy-4-(trifluoromethoxy)phenoxy]-3-(trifluoromethyl)benzamide] showed an IC50 of 45 nM.
With `COc1cc(OC(F)(F)F)ccc1Oc1ccc(C(F)(F)F)c(F)c1C(=O)Nc1cccc(C(=O)N(C)C)c1` [Compound 96, N-[3-(dimethylcarbamoyl)phenyl]-2-fluoro-6-[2-methoxy-4-(trifluoromethoxy)phenoxy]-3-(trifluoromethyl)benzamide] the IC50 was 54 nM.
In the case of `COc1cc(OC(F)(F)F)ccc1Oc1ccc(C(F)(F)F)c(F)c1C(=O)Nc1ccnc(C(=O)N(C)C)c1` [Compound 97, 4-[[2-fluoro-6-[2-methoxy-4-(trifluoromethoxy)phenoxy]-3-(trifluoromethyl)benzoyl]amino]-N,N-dimethyl-pyridine-2-carboxamide], the IC50 is reported as 20 nM.
For `CNC(=O)c1cccc(NC(=O)c2c(Oc3ccc(OC(F)(F)F)cc3OC)ccc(C(F)(F)F)c2F)c1` [Compound 98, 2-fluoro-6-[2-methoxy-4-(trifluoromethoxy)phenoxy]-N-[3-(methylcarbamoyl)phenyl]-3-(trifluoromethyl)benzamide], the IC50 was 15 nM.
In the case of `CNC(=O)c1cc(NC(=O)c2c(Oc3ccc(OC(F)(F)F)cc3OC)ccc(C(F)(F)F)c2F)ccc1F` [Compound 99, 2-fluoro-N-[4-fluoro-3-(methylcarbamoyl)phenyl]-6-[2-methoxy-4-(trifluoromethoxy)phenoxy]-3-(trifluoromethyl)benzamide], the IC50 is reported as 3 nM.
For `COc1cc(OC(F)(F)F)ccc1Oc1ccc(C(F)(F)F)c(F)c1C(=O)Nc1cc(F)cc(C(N)=O)c1` [Compound 100, N-(3-carbamoyl-5-fluoro-phenyl)-2-fluoro-6-[2-methoxy-4-(trifluoromethoxy)phenoxy]-3-(trifluoromethyl)benzamide], the IC50 was 9 nM.
Work on `NC(=O)c1cc(F)cc(NC(=O)c2c(Oc3ccc(OC(F)(F)F)cc3)ccc(C(F)(F)F)c2F)c1` [Compound 101, N-(3-carbamoyl-5-fluoro-phenyl)-2-fluoro-6-[4-(trifluoromethoxy)phenoxy]-3-(trifluoromethyl)benzamide] yielded an IC50 of 135 nM.
